Values of other authors in patent US20040143023A1, “Materials and methods for synthesizing stilbenes” (priority 2000, published 2004).

Tests used:
[1] = tested on: P388 murine leukaemia cell line; settings: cell line not restated for the trans isomer
[2] = in water and saline

Structure (SMILES) | concentration range in which cell growth is inhibited [1] | solubility [2] | toxicity toward tumour vasculature (tumour vasculature)
COc1ccc(/C=C/c2cc(OC)c(OC)c(OC)c2)cc1O [trans-combretastatin A-4, E-1-(3′-Hydroxy-4′-methoxy)-2-(Trimethoxyphenyl)-2-(3″,4″,5″-trimethoxyphenyl)ethene] | millimblar range | – | –
COc1ccc(/C=C\c2cc(OC)c(OC)c(OC)c2)cc1O [cis-combretastatin A-4, Z-1-(3′-Hydroxy-4′-methoxyphenyl)-2-(3″,4″,5″-trimethoxyphenyl)ethene] | – | low solubility | potent and selective toxicity
